From PMC7948495, “The flexible N-terminus of BchL autoinhibits activity through interaction with its [4Fe-4S] cluster and released upon ATP binding” (The Journal of Biological Chemistry, 2020) come the findings set out here.

Assay [1] has as its target T1, BchL (Cereibacter sphaeroides, UniProt Q9RFD6).
T1 construct: full-length with N-terminal 6xHis tag and TEV site; recombinant, plasmid-expressed; anaerobically purified; homodimer bridged by one [4Fe-4S] cluster
The experiment in a line: EPR of the [4Fe-4S] cluster. The assay is classed as binding. The following applies: 40 µM BchL, 3 mM ADP, 1.7 mM dithionite.

Assay [2] deals with T2, BchL (Cereibacter sphaeroides, UniProt Q9RFD6, S17A).
T2 construct: full-length with N-terminal 6xHis tag and TEV site; recombinant, plasmid-expressed; anaerobically purified; homodimer bridged by one [4Fe-4S] cluster
T2 sequence (Q9RFD6 whole entry S17A): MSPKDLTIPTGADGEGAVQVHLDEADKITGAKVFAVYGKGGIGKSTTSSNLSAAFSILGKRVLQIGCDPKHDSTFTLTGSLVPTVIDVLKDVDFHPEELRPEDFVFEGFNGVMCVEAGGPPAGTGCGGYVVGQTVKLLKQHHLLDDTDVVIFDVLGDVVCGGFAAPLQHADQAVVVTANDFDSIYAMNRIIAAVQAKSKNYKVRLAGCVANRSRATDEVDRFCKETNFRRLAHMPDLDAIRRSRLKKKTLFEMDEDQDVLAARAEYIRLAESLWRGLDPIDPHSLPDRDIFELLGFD
The experiment in a line: hydrogen-deuterium exchange mass spectrometry. To be noted: 2 mM ATP, 10 mM MgCl2, pD 7.5, anaerobic. The assay is classed as binding.

Assay [3] concerns the target T3, linked-BchL (L1-L2) (Cereibacter sphaeroides, UniProt Q9RFD6, K44A).
T3 construct: N-terminal 6xHis tag and TEV site
Description: nitrocellulose filter binding. To be noted: labelled compound (32P-ATP tracer); 1 mM ATP, 10 mM MgCl2, pH 7.5, 25 °C; one of two sites mutated.

Assay [4] addresses T4, BchL (Cereibacter sphaeroides, UniProt Q9RFD6, D180N/D182N).
T4 construct: full-length with N-terminal 6xHis tag and TEV site; recombinant, plasmid-expressed; anaerobically purified; homodimer bridged by one [4Fe-4S] cluster
The experiment in a line: nitrocellulose filter binding. The following applies: labelled compound (α32P-ATP tracer); 4 µM BchL, 1 mM ATP, 10 mM MgCl2, pH 7.5, 25 °C; stoichiometry, no affinity constant.

Assay [5] addresses T5, linked-BchL (L1-L2) (Cereibacter sphaeroides, UniProt Q9RFD6).
T5 construct: N-terminal 6xHis tag and TEV site
The experiment in a line: nitrocellulose filter binding. To be noted: labelled compound (α32P-ATP tracer); 4 µM BchL, 1 mM ATP, 10 mM MgCl2, pH 7.5, 25 °C; stoichiometry, no affinity constant. From the text: nitrocellulose filter binding on linked-BchL (L1-L2) | linked-BchL with unaltered ATP-binding sites ([…]) bind ATP to similar extents

The target in assay [6] is T1, BchL. The experiment in a line: nitrocellulose filter binding. The following applies: labelled compound (α32P-ATP tracer); 4 µM BchL, 1 mM ATP, 10 mM MgCl2, pH 7.5, 25 °C; stoichiometry, no affinity constant.

Structures are written as SMILES.

T1 sequence (Q9RFD6 whole entry): as the sequence (Q9RFD6 whole entry S17A) above, with A17S counted along it
T4 sequence (Q9RFD6 whole entry D180N/D182N): as the sequence (Q9RFD6 whole entry S17A) above, with A17S, D180N, D182N counted along it
T5 sequence (Q9RFD6 whole entry): as the sequence (Q9RFD6 whole entry S17A) above, with A17S counted along it
T3 sequence (Q9RFD6 whole entry K44A): as the sequence (Q9RFD6 whole entry S17A) above, with A17S, K44A counted along it

Consider `Nc1ncnc2c1ncn2[C@@H]1O[C@H](COP(=O)(O)OP(=O)(O)O)[C@@H](O)[C@H]1O` [ADP], for which, in assay [1], the “EPR of the [4Fe-4S] cluster” value is “with ADP, the proportion of the FeS^A species was diminished by a factor of two”.

With `Nc1ncnc2c1ncn2[C@@H]1O[C@H](COP(=O)(O)OP(=O)(O)OP(=O)(O)O)[C@@H](O)[C@H]1O` [ATP], the “hydrogen-deuterium exchange mass spectrometry” value in assay [2] was “Both BchL and BchL^S17A show similar patterns of reduced deuteration upon binding to ATP”. The nitrocellulose filter binding result in assay [3] is reported as “When only one of the two ATP binding sites is mutated (L1^KA-L2), partial ATP binding is observed”; in assay [5], “linked-BchL with unaltered ATP-binding sites (L1L2) bind ATP to similar extents”. Besides, the “ATP bound per BchL dimer” value in assay [4] and in assay [6] was ~ 2 ATP per dimer each time.
